Earlier results, collected in the CATMoS acute toxicity set (Mansouri et al. 2021).
Where “and” joins values, the source holds several entries; their conditions need not be identical. Identical values can stand only once.

assay: rat acute oral toxicity; settings: in vivo

SMILES | LD50
O=C(O)COc1ccc(Cl)cc1Cl | 405 mg/kg and 850 mg/kg
c1ccc(CCc2ccccc2)cc1 | 4520 mg/kg
CNC(=O)C(Cl)C(C)=O (stereo not given) | 700 mg/kg
C=CCNC(=O)OCC(O)C1COc2ccccc2O1 (stereo not given) | 1500 mg/kg
S=C(C=Cc1ccc2c(c1)OCO2)N1CCOCC1 | 285 mg/kg
C=CCC(CC)(CC)C(N)=O | 400 mg/kg
N#CCON=C(C#N)c1ccccc1 | 2280 mg/kg
C=CCOCCO | 3050 mg/kg
ClCCOCCOCCCl | 250 mg/kg
CC1CNC(C)CN1 (stereo not given) | 3160 mg/kg
CCN(CC)P1(=S)OCc2cc([N+](=O)[O-])ccc2O1 (stereo not given) | 150 mg/kg
N#CCCSCCC#N | 4210 mg/kg
CC1=COC(C)(C=O)CC1 (stereo not given) | 2460 mg/kg
NN1C(=O)CC(c2cccc(Br)c2)C1=O (stereo not given) | 1600 mg/kg
CN(C)S(=O)(=O)N(SC(F)(Cl)Cl)c1ccccc1 | 500 mg/kg
CCCC[N+]1(C)[C@@H]2C[C@@H](OC(=O)[C@H](CO)c3ccccc3)C[C@H]1[C@@H]1O[C@@H]12 (stereo not given in full) | 1040 mg/kg
CCc1occc(=O)c1O | 1150 mg/kg
CC(C)(S)[C@@H](N)C(=O)O | 6170 mg/kg
Nc1cc([N+](=O)[O-])ccc1Cl | 2020 mg/kg
COP(=O)(OC)OC | 840 mg/kg

SMILES | LD50
CCO[Si](C)(C)OCC | 9280 mg/kg
Clc1cc2oc3c(Cl)c(Cl)c(Cl)cc3c2cc1Cl | 0.916 mg/kg
CCS(=O)(=O)CCSP(=O)(OC)OC | 32.4 mg/kg
CC(C)CC(C)Nc1ccc(Nc2ccccc2)cc1 (stereo not given) | 3580 mg/kg
NC(=S)Cc1cccc2ccccc12 | 60 mg/kg
CC1(C)CC(NCCC(=O)NC2CC(C)(C)NC(C)(C)C2)CC(C)(C)N1 | 4180 mg/kg
O=S1c2ccccc2N(CCCN2CCN(CCO)CC2)c2cc(Cl)ccc21 (stereo not given) | 1000 mg/kg
CCOC(=O)[N-]c1c[n+](N2CCOCC2)no1 | 1050 mg/kg
CCC(O)CO (stereo not given) | 16000 mg/kg
CNC(=O)N(C)c1nnc(C(F)(F)F)s1 | 278 mg/kg
CC(O)C(c1ccccc1)N1CCN(CCOc2ccccc2)CC1 (stereo not given) | 250 mg/kg
S=c1[nH]c(=S)[nH]c(=S)[nH]1 | 9500 mg/kg
CCN(CC)CCNC(=O)c1ccc(N)cc1 | 1950 mg/kg
C/N=C/Nc1ccc(Cl)cc1C | 264 mg/kg
CC1(C)CC(N2C(C)(C)CC(N)CC2(C)C)CC(C)(C)N1 | 2170 mg/kg
CCOCN(C(=O)CCl)c1c(C)cccc1OC(C)C | 2700 mg/kg
CC(=Cc1ccccc1)CC(=O)N1CCOCC1 | 1000 mg/kg
O=C1c2ccccc2N(C(=O)CN2CCOCC2)CN1c1ccccc1 | 2220 mg/kg and 2140 mg/kg
CCN(C(=O)c1cc(Cl)nc(Cl)c1)C1CC1 | 78 mg/kg
CCOP(=O)(OCC)OC(=C(Cl)Br)c1ccc(Cl)cc1Cl | 19.3 mg/kg

SMILES | LD50
CC(C)=C1C(=O)N(c2ccccc2)N(c2ccccc2)C1=O | 1280 mg/kg
Nc1ncc(C=Cc2ccc([N+](=O)[O-])o2)nn1 | 250 mg/kg
CN(C)CC(=O)O | 3900 mg/kg
COc1ccc(S(=O)(=O)Nc2nnc(CC(C)C)s2)cc1 | 534 mg/kg
O=C1C=CC(=O)N1C(=O)NCNC(=O)N1C(=O)C=CC1=O | 1420 mg/kg
COP(=S)(OC)Oc1cc(Cl)c(I)cc1Cl | 2330 mg/kg
Cc1cc(N=Nc2ccc(S(=O)(=O)O)cc2)c(N)c(N=Nc2ccc(-c3ccc(N=Nc4cc(C)c(O)c(C(=O)O)c4)cc3)cc2)c1N | 9960 mg/kg
CC(C)(C)NCCCCN | 810 mg/kg
O=C1CN(/N=C/c2ccc([N+](=O)[O-])o2)C(O)=N1 | 1490 mg/kg
OCCSSc1c(Cl)c(Cl)c(Cl)c(Cl)c1Cl | 2860 mg/kg
COc1ccc(N)c(OC)c1 | 464 mg/kg
Oc1ccc(Sc2ccc(O)cc2)cc1 | 3360 mg/kg
Cn1c(=O)c2c(ncn2CCCCCN2CCN(c3cccc(C(F)(F)F)c3)CC2)n(C)c1=O | 660 mg/kg
CCCC(=O)c1ccc2c(c1)N(CCCN1CCOCC1)c1ccccc1S2 | 3500 mg/kg
Cn1c(-c2ccccc2)cc(-c2ccccc2)[n+]1C | 206 mg/kg and 470 mg/kg
Cc1cccc(/N=N\N(C)C)c1 | 300 mg/kg
CC1(C)C2CCC(C=O)C1C2 (stereo not given) | 2300 mg/kg
OCCCc1ccccc1 | 2300 mg/kg
C[N+](C)(C)CC[N+]1(C)Cc2c(Cl)c(Cl)c(Cl)c(Cl)c2C1 | 300 mg/kg
COP(=S)(OC)SC | 15 mg/kg
